According to patent US6677326B2 (Arakis, Ltd., priority 1999, dated 2004):

Legend:
[1] = BNF 37 March 1999; non-chronotherapeutic; cited from earlier work
[2] = Proposed equivalent dose in chronotherapeutic administration; details: proposed clinical dose
[3] = BNF 37 March 1999; cited from earlier work
IL-6 = experiment: Same study: serum IL-6 concentration at 08.30; format: in vivo, patients
Procedure: (§1) Serological: Serum samples were obtained at 08.30, kept on ice for up to 1 hour, separated and stored at −70° C. to measure: C-reactive protein (CRP); IL-6 concentration; IL-6 soluble receptor (IL-6sR) concentration; hyaluronate (HA) concentration.

[4] = human, in vivo, 1.25 mg
rheumatoid arthritis = details: daily dosage of 7.5 mg; Kirwan 1995; cited from earlier work
C-reactive protein (CRP) = experiment: Same study: serum C-reactive protein at 08.30; format: in vivo, patients
Procedure: as §1

hyaluronate (HA) = experiment: Same study: serum hyaluronate concentration at 08.30; format: in vivo, patients; design: unit not given beside the values; details: mean, serum 08.30
[5] = test system: patients with rheumatoid arthritis; experiment: Assessor-blind study of prednisolone 1 mg and 5 mg given at 02.00: clinical outcomes; format: in vivo; details: for More or Less (arthritis worse: -1 morning, 0 equal, +1 afternoon) / Pain (VAS) / Painful Joints (tender joint count, n=28) / Swollen Joints (swollen joint count, n=28) / Cln Opn (clinician opinion of condition, VAS) / EMS (morning stiffness) / Pt Opn (patient opinion of condition, VAS): mean; for Pain (VAS) / Painful Joints (tender joint count, n=28) / Swollen Joints (swollen joint count, n=28): 08.30; for Cln Opn (clinician opinion of condition, VAS) / EMS (morning stiffness) / Pt Opn (patient opinion of condition, VAS): 12.00
Excerpt: Patients stayed the night in hospital but were free to be up and about and to leave the hospital during the day. […] Blood samples and clinical assessments were made at 08.30 and further clinical assessments related to symptoms on the day of drug administration at 12.00 and 08.30 the following day (except the final day when this last assessment was made before departure from the hospital). […] Patients went home on Friday afternoon but returned the following Monday to repeat the procedure. […] The patient and assessor were not aware of which dose was given.
Clinical: Outcome was measured at 08.30 each day for: swollen joint count (n=28); tender joint count (n=28); pain (0.100 mm, VAS). Outcome was measured at 12.00 each day for: morning stiffness (minutes); patient opinion of condition (0-100 mm, VAS); clinician opinion of condition (0-100 mm, VAS). Outcome was measured the following day for: whether the arthritis was worse in the morning or afternoon on the previous day (−1 morning, 0 equal, +1 afternoon).
The assessor was not aware of the treatment order allocation (and probably remained blind), but no placebo tablets were used and it was possible for a patient to be un-blind.
Informed consent was obtained and the patient prescription written by a doctor not associated with trial evaluation. Medication was dispensed at 2 a.m. on each treatment day after gently waking the patient. The patient was encouraged to settle back to sleep immediately.
On the morning before medication and on each morning on the day of medication, blood samples were taken at 8.30 a.m. and outcome assessments recorded then, and at noon, as indicated above.
Symptoms, signs and laboratory results were compared within and between patients, but the main assessment was visual inspection of the overall pattern of response. Means and standard deviations were used to define variation rates and for calculating trial size for future studies. An overall assessment of practicality and the potential for more frequent (but smaller volume) blood taking was made by discussion amongst the staff and patients involved.
This patient's assessments have been included normally in the first week, but in the second week they have been used differently.

[6] = Dose 1 mg at 02.00, Day 1, mean, serum 08.30
[7] = Dose 1 mg at 02.00, Day 2, mean, serum 08.30
[8] = Dose 1 mg at 02.00, Day 3, mean, serum 08.30
[9] = Dose 5 mg at 02.00, Day 11, mean, serum 08.30
[10] = Dose 5 mg at 02.00, Day 12, mean, serum 08.30
[11] = Dose 5 mg at 02.00, Day 13, mean, serum 08.30
[12] = 1 mg prednisolone, three patients

Molecule: CC(=O)OCC(=O)[C@@]1(O)CC[C@H]2[C@@H]3CCC4=CC(=O)CC[C@]4(C)[C@H]3C(=O)C[C@@]21C [cortisone acetate]
- Dose equal to 5 mg prednisolone (Normal dosing) [1]: 25 mg
- Equivalent dose in chronotherapeutic administration, equal to 1 mg prednisolone [2]: 5 mg

Molecule: C[C@]12CCC(=O)C=C1CC[C@@H]1[C@@H]2[C@@H](O)C[C@@]2(C)[C@H]1CC[C@]2(O)C(=O)CO [hydrocortisone]
- Dose equal to 5 mg prednisolone (Normal dosing) [1]: 20 mg
- Equivalent dose in chronotherapeutic administration, equal to 1 mg prednisolone [2]: 4 mg

Molecule: CC(=O)OCC(=O)[C@@]12N=C(C)O[C@@H]1C[C@H]1[C@@H]3CCC4=CC(=O)C=C[C@]4(C)[C@H]3[C@@H](O)C[C@@]12C [deflazacort]
- Dose equal to 5 mg prednisolone (Normal dosing) [1]: 6 mg
- Equivalent dose in chronotherapeutic administration, equal to 1 mg prednisolone [2]: 1.2 mg

Molecule: methyl prednisone
- Dose equal to 5 mg prednisolone (Normal dosing) [1]: 4 mg
- Equivalent dose in chronotherapeutic administration, equal to 1 mg prednisolone [2]: 0.8 mg

Molecule: C[C@]12C=CC(=O)C=C1CC[C@H]1[C@@H]3C[C@@H](O)[C@](O)(C(=O)CO)[C@@]3(C)C[C@H](O)[C@@]12F [triamcinolone]
- Dose equal to 5 mg prednisolone (Normal dosing) [1]: 4 mg
- Equivalent dose in chronotherapeutic administration, equal to 1 mg prednisolone [2]: 0.8 mg
- Broadly similar dose in nasal administration [3]: 110 µg

Molecule: C[C@]12C=CC(=O)C=C1CC[C@@H]1[C@@H]2[C@@H](O)C[C@@]2(C)[C@H]1CC[C@]2(O)C(=O)CO [prednisolone]
- IL-6 (IL-6; 1 mg prednisolone): tendency for reduction
- IL-6 (IL-6; 5 mg prednisolone): reduced significantly
- IL-6 (IL-6; [6]): 28.1
- IL-6 (IL-6; [7]): 31.1
- IL-6 (IL-6; [8]): 22.8
- IL-6 (IL-6; [9]): 30.3
- IL-6 (IL-6; [10]): 18.5
- IL-6 (IL-6; [11]): 13.8
- time to Cmax or Tmax [4]: 1 to 3 h
- Efficacy in rheumatoid arthritis (rheumatoid arthritis): effective
- CRP (C-reactive protein (CRP); 1 mg prednisolone): tendency for reduction
- CRP (C-reactive protein (CRP); 5 mg prednisolone): reduced significantly
- CRP (C-reactive protein (CRP); [6]): 35.5
- CRP (C-reactive protein (CRP); [7]): 31.2
- CRP (C-reactive protein (CRP); [8]): 25.8
- CRP (C-reactive protein (CRP); [9]): 36.6
- CRP (C-reactive protein (CRP); [10]): 31.1
- CRP (C-reactive protein (CRP); [11]): 19.1
- HA (hyaluronate (HA); Dose 1 mg at 02.00, Day 1): 241.9
- HA (hyaluronate (HA); Dose 1 mg at 02.00, Day 2): 320.3
- HA (hyaluronate (HA); Dose 1 mg at 02.00, Day 3): 372.5
- HA (hyaluronate (HA); Dose 5 mg at 02.00, Day 11): 322.5
- HA (hyaluronate (HA); Dose 5 mg at 02.00, Day 12): 339.5
- HA (hyaluronate (HA); Dose 5 mg at 02.00, Day 13): 193.9
- EMS [5, 12]: statistically significantly reduced
- Pain [5, 12]: statistically significantly reduced
- clinician's opinion [5, 12]: statistically significantly reduced
- patient's opinion [5, 12]: statistically significantly reduced
- Overall results compared with Arvidson et al. ([5]; 5 mg prednisolone at 02.00): well within the range of findings published by Arvidson et al.
- More or Less (arthritis worse: -1 morning, 0 equal, +1 afternoon) ([5]; Dose 1 mg at 02.00, Day 1): −0.7
- Pain (VAS) ([5]; Dose 1 mg at 02.00, Day 1): 26.0 mm
- Painful Joints (tender joint count, n=28) ([5]; Dose 1 mg at 02.00, Day 1): 20.0
- Swollen Joints (swollen joint count, n=28) ([5]; Dose 1 mg at 02.00, Day 1): 18.7
- Cln Opn (clinician opinion of condition, VAS) ([5]; Dose 1 mg at 02.00, Day 1): 28.7 mm
- EMS (morning stiffness) ([5]; Dose 1 mg at 02.00, Day 1): 55.0 min
- Pt Opn (patient opinion of condition, VAS) ([5]; Dose 1 mg at 02.00, Day 1): 23.7 mm
- More or Less (arthritis worse: -1 morning, 0 equal, +1 afternoon) ([5]; Dose 1 mg at 02.00, Day 2): −0.7
- Pain (VAS) ([5]; Dose 1 mg at 02.00, Day 2): 20.3 mm
- Painful Joints (tender joint count, n=28) ([5]; Dose 1 mg at 02.00, Day 2): 20.3
- Swollen Joints (swollen joint count, n=28) ([5]; Dose 1 mg at 02.00, Day 2): 18.7
- Cln Opn (clinician opinion of condition, VAS) ([5]; Dose 1 mg at 02.00, Day 2): 29.3 mm
- EMS (morning stiffness) ([5]; Dose 1 mg at 02.00, Day 2): 51.7 min
- Pt Opn (patient opinion of condition, VAS) ([5]; Dose 1 mg at 02.00, Day 2): 26.7 mm
- More or Less (arthritis worse: -1 morning, 0 equal, +1 afternoon) ([5]; Dose 1 mg at 02.00, Day 3): 0.0
- Pain (VAS) ([5]; Dose 1 mg at 02.00, Day 3): 16.7 mm
- Painful Joints (tender joint count, n=28) ([5]; Dose 1 mg at 02.00, Day 3): 20.3
- Swollen Joints (swollen joint count, n=28) ([5]; Dose 1 mg at 02.00, Day 3): 18.3
- Cln Opn (clinician opinion of condition, VAS) ([5]; Dose 1 mg at 02.00, Day 3): 16.3 mm
- EMS (morning stiffness) ([5]; Dose 1 mg at 02.00, Day 3): 40.0 min
- Pt Opn (patient opinion of condition, VAS) ([5]; Dose 1 mg at 02.00, Day 3): 12.7 mm
- More or Less (arthritis worse: -1 morning, 0 equal, +1 afternoon) ([5]; Dose 5 mg at 02.00, Day 11): −0.3
- Pain (VAS) ([5]; Dose 5 mg at 02.00, Day 11): 19.7 mm
- Painful Joints (tender joint count, n=28) ([5]; Dose 5 mg at 02.00, Day 11): 19.0
- Swollen Joints (swollen joint count, n=28) ([5]; Dose 5 mg at 02.00, Day 11): 18.0
- Cln Opn (clinician opinion of condition, VAS) ([5]; Dose 5 mg at 02.00, Day 11): 27.7 mm
- EMS (morning stiffness) ([5]; Dose 5 mg at 02.00, Day 11): 30.0 min
- Pt Opn (patient opinion of condition, VAS) ([5]; Dose 5 mg at 02.00, Day 11): 19.3 mm
- More or Less (arthritis worse: -1 morning, 0 equal, +1 afternoon) ([5]; Dose 5 mg at 02.00, Day 12): −0.3
- Pain (VAS) ([5]; Dose 5 mg at 02.00, Day 12): 15.7 mm
- Painful Joints (tender joint count, n=28) ([5]; Dose 5 mg at 02.00, Day 12): 19.7
- Swollen Joints (swollen joint count, n=28) ([5]; Dose 5 mg at 02.00, Day 12): 17.3
- Cln Opn (clinician opinion of condition, VAS) ([5]; Dose 5 mg at 02.00, Day 12): 15.7 mm
- EMS (morning stiffness) ([5]; Dose 5 mg at 02.00, Day 12): 20.0 min
- Pt Opn (patient opinion of condition, VAS) ([5]; Dose 5 mg at 02.00, Day 12): 11.7 mm
- More or Less (arthritis worse: -1 morning, 0 equal, +1 afternoon) ([5]; Dose 5 mg at 02.00, Day 13): −0.7
- Pain (VAS) ([5]; Dose 5 mg at 02.00, Day 13): 16.0 mm
- Painful Joints (tender joint count, n=28) ([5]; Dose 5 mg at 02.00, Day 13): 19.7
- Swollen Joints (swollen joint count, n=28) ([5]; Dose 5 mg at 02.00, Day 13): 14.0
- Cln Opn (clinician opinion of condition, VAS) ([5]; Dose 5 mg at 02.00, Day 13): 11.7 mm
- EMS (morning stiffness) ([5]; Dose 5 mg at 02.00, Day 13): 33.3 min
- Pt Opn (patient opinion of condition, VAS) ([5]; Dose 5 mg at 02.00, Day 13): 13.3 mm
